The values that follow come from ChEMBL document CHEMBL4765362, “Thirty Years of HDAC Inhibitors: 2020 Insight and Hindsight” (J Med Chem, 2020).

Broadly, the IC50 is the concentration that inhibits the measured activity by half. As usually defined, the Ki is the equilibrium dissociation constant of an inhibitor or competing ligand from its target. A higher Ki goes with weaker binding. As a reminder, the Kd is the free concentration of one partner at which half of the binding sites on the other are occupied at equilibrium, for simple one-to-one binding. Read a low Kd as higher affinity.

For test [1], the target named is T1, Histone deacetylase 4 (Homo sapiens, UniProt P56524). In words: Inhibition of human HDAC4 using Boc-Lys(tri-fluoracetyl)-AMC as substrate preincubated for 30 mins followed by substrate addition and measured after 60 mins by […] assay.
T1 sequence (P56524 whole entry): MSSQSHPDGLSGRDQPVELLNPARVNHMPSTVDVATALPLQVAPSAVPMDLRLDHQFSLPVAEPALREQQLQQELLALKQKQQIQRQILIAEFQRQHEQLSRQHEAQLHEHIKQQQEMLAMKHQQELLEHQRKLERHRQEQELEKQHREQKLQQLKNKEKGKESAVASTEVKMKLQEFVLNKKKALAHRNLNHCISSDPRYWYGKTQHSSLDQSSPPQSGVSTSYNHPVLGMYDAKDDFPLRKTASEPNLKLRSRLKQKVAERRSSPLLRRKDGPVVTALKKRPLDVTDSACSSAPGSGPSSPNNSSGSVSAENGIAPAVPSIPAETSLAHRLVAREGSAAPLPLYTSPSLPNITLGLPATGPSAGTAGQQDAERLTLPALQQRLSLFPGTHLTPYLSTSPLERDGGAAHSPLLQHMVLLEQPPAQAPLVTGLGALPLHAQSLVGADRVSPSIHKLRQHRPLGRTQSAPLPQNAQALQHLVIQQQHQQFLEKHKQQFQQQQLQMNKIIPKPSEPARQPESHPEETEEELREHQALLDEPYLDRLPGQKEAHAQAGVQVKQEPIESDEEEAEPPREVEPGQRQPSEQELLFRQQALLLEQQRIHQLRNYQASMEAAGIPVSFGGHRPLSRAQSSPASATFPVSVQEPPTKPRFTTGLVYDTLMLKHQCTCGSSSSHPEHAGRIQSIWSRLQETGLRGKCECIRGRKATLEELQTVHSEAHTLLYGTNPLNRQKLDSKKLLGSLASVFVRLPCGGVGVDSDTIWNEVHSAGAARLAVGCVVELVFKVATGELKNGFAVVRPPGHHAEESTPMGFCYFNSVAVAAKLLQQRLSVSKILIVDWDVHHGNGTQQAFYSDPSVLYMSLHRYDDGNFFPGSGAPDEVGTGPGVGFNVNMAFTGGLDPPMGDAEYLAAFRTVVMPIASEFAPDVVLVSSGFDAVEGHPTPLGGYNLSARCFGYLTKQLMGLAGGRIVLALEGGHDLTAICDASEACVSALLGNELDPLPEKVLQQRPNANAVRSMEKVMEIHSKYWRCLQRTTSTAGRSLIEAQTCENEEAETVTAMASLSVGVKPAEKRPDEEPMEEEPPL
Test [2] addresses T2, Histone deacetylase 3 (Homo sapiens, UniProt O15379). In words: Inhibition of human HDAC3 using Boc-Lys(Ac)-AMC as substrate preincubated for 30 mins followed by substrate addition and measured after 60 mins by […] assay.
The target in test [3] is T3, Histone deacetylase 1 (Homo sapiens, UniProt Q13547). The experiment in a line: Inhibition of human HDAC1 using Boc-Lys(Ac)-AMC as substrate preincubated for 30 mins followed by substrate addition and measured after 60 mins by […] assay.
T3 sequence (Q13547 whole entry): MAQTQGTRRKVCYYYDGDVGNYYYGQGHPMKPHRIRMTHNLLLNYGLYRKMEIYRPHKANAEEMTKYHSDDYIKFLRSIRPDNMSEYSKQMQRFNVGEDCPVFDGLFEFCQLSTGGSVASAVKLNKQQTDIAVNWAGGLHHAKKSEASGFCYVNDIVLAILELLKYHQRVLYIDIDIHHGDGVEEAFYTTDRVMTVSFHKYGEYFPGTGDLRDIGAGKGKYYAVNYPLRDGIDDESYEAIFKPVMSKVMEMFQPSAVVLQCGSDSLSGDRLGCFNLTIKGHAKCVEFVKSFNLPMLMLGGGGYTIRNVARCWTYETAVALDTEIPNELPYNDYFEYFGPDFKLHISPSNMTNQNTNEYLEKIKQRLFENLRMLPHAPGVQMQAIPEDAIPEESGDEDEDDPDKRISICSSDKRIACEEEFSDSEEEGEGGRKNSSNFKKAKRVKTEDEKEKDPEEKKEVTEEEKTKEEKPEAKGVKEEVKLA
For test [4], the target named is T4, Protein deacetylase HDAC6 (Homo sapiens, UniProt Q9UBN7).
T4 sequence (Q9UBN7 whole entry): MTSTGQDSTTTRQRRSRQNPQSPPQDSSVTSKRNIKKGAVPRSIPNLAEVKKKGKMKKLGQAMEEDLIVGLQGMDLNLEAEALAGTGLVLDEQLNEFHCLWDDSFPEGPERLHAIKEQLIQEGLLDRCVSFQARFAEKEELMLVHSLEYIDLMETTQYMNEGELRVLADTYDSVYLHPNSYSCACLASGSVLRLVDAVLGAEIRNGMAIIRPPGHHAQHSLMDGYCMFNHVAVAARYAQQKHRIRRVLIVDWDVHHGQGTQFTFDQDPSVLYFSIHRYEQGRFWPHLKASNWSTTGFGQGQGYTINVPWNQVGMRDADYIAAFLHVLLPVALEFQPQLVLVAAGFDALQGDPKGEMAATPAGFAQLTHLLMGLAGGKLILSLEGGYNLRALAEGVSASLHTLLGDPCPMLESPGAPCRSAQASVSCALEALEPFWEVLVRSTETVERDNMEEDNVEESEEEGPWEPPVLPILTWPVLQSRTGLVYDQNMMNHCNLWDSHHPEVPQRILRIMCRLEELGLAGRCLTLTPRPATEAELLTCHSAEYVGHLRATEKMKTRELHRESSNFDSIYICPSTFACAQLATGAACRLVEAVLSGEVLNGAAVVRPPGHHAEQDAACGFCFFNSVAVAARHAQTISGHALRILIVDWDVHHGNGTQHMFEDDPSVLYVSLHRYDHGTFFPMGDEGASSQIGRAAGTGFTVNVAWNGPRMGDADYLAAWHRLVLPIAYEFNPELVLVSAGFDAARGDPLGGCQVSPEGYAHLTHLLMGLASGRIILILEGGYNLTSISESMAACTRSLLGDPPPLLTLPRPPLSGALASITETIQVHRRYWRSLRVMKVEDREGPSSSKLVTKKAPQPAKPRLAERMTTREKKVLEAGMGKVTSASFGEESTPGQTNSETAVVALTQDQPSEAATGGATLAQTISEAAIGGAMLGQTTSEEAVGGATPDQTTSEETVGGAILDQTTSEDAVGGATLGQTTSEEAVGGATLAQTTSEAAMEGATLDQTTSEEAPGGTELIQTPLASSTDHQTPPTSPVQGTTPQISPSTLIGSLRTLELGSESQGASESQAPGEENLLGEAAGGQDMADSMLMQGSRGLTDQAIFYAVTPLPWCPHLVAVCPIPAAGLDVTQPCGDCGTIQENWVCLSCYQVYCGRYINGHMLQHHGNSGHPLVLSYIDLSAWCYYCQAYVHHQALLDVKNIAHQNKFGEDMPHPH
The experiment in a line: Inhibition of human HDAC6 using Boc-Lys(Ac)-AMC as substrate preincubated for 30 mins followed by substrate addition and measured after 60 mins by […].

For test [5], the target named is T1, Histone deacetylase 4. In words: Inhibition of human HDAC4 expressed in baculovirus infected sf9 cells using Boc-L-Lys-MCA as substrate preincubated for 15 mins followed by substrate addition and measured after 60 mins by fluorescence method.
Test [6] has as its target T5, Histone deacetylase 9 (Homo sapiens, UniProt Q9UKV0). The experiment in a line: Inhibition of C-terminal His-tagged human HDAC9 (604 to 1066 residues) expressed in baculovirus infected sf9 cells using Boc-L-Lys-MCA as substrate preincubated for 15 mins followed by substrate addition and measured after 60 mins by fluorescence method.
The target of test [7] is T6, Polyamine deacetylase HDAC10 (Homo sapiens, UniProt Q969S8).
T6 sequence (Q969S8 whole entry): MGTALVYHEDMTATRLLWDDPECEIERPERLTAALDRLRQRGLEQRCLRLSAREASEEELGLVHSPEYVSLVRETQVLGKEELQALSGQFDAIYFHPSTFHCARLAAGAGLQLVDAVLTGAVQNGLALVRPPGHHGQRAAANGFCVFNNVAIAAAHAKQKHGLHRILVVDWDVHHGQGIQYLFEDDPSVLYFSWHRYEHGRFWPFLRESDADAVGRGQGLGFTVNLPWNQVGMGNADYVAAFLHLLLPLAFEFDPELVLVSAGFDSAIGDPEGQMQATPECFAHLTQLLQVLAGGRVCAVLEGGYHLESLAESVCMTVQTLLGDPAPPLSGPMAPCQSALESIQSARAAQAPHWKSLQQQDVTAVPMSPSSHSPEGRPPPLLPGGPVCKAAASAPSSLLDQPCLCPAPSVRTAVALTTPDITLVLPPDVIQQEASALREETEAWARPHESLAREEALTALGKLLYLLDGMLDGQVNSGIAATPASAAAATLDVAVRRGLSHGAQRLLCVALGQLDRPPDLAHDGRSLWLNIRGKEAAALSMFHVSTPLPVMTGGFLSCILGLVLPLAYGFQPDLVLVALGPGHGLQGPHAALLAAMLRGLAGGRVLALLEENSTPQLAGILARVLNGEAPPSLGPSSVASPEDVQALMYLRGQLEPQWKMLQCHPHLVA
The experiment in a line: Inhibition of recombinant human HDAC10 (2 to 631 residues) expressed in baculovirus infected sf9 cells using Fluor-de-lys as substrate preincubated for 15 mins followed by substrate addition and measured after 60 mins by fluorescence method.

Test [8] concerns the target T7, Histone deacetylase 5 (Homo sapiens, UniProt Q9UQL6). The experiment in a line: Inhibition of human HDAC5 using Boc-L-Lys-MCA as substrate preincubated for 15 mins followed by substrate addition and measured after 60 mins by fluorescence method.
Test [9] in a line: Inhibition of LSD1-HDAC1-CoREST (unknown origin) using Boc-(Ac)Lys-AMC as substrate incubated for 20 mins by fluorescence-based assay. Set-up: species or system Homo sapiens.
The target of test [10] is T8, Histone deacetylase 2 (Homo sapiens, UniProt Q92769). The experiment in a line: Inhibition of HDAC2 (unknown origin).
T8 sequence (Q92769 whole entry): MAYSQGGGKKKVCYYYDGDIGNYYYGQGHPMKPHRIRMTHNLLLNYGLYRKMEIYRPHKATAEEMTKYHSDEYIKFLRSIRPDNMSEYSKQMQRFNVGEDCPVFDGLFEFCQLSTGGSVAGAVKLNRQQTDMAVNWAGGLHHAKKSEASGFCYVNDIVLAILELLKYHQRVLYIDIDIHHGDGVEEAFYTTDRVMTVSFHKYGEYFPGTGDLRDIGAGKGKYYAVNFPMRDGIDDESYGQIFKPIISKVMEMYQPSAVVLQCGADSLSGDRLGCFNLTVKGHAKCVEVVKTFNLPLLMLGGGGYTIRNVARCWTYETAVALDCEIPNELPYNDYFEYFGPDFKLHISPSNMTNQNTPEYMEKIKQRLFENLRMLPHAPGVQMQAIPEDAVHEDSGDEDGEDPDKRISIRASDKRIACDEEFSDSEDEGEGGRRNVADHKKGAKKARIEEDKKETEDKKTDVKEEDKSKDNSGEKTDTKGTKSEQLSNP
Test [11] has as its target T3, Histone deacetylase 1. The experiment in a line: Inhibition of HDAC1 (unknown origin).
For test [12], the target named is T2, Histone deacetylase 3. In words: Inhibition of HDAC3 (unknown origin).
Test [13] deals with T7, Histone deacetylase 5. In words: Inhibition of human HDAC5 expressed in baculovirus infected sf9 cells using (Boc-Lys(trifluoroacetyl)-AMC) as substrate by fluorescence-based assay.
Test [14] has as its target T5, Histone deacetylase 9. In words: Inhibition of human HDAC9 expressed in baculovirus infected sf9 cells using (Boc-Lys(trifluoroacetyl)-AMC) as substrate by fluorescence-based assay.
The target in test [15] is T6, Polyamine deacetylase HDAC10. The experiment in a line: Inhibition of recombinant human N-terminal FLAG-tagged HDAC10 (2 to 631 residues) expressed in baculovirus infected sf9 cells using p53 (379 to 382 residues) (Arg-His-Lys(Ac)-Lys(Ac)) as substrate by fluorimetric assay.
The target of the next test is T9, Histone deacetylase 8 (Homo sapiens, UniProt Q9BY41).
T9 sequence (Q9BY41 whole entry): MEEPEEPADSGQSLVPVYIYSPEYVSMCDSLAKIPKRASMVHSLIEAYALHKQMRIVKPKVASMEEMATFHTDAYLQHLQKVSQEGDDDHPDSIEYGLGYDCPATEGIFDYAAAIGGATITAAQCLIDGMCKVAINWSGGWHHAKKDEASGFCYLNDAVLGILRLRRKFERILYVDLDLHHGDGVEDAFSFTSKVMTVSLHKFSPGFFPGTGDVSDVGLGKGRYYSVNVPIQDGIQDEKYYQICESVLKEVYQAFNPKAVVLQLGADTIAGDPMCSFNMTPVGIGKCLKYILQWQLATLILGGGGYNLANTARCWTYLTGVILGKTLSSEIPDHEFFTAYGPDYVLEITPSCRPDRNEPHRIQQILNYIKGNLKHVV
The experiment in a line: Inhibition of recombinant human C-terminal His-tagged HDAC8 expressed in baculovirus infected sf9 cells using p53 (379 to 382 residues) (Arg-His-Lys(Ac)-Lys(Ac)) by fluorimetric assay.

Test [16] deals with T6, Polyamine deacetylase HDAC10. In words: Inhibition of HDAC10 (unknown origin).
Test [17] concerns the target T8, Histone deacetylase 2. In words: Inhibition of human HDAC2 expressed in Sf9 cells using Ac-Leu-Gly-Lys(Ac)-AMC as substrate measured every 30 secs for 60 mins by fluorescence-based assay.
The target of test [18] is T3, Histone deacetylase 1. The experiment in a line: Inhibition of HDAC1 (unknown origin) using Ac-Leu-Gly-Lys(Ac)-AMC as substrate measured every 30 secs for 60 mins by fluorescence-based assay.
Test [19] deals with Histone deacetylase 3/Nuclear receptor corepressor 2 (HDAC3/NCoR2) (Homo sapiens, UniProt O15379). The experiment in a line: Inhibition of human C-terminal His-tagged HDAC3 (1 to 428 residues)/human N-terminal GST-tagged NcoR2 (395 to 489 residues) expressed in sf9 cells using Ac-Leu-Gly-Lys(Ac)-AMC as substrate measured every 30 secs for 60 mins by fluorescence-based assay.

In test [20] the target is T1, Histone deacetylase 4. The experiment in a line: Binding affinity to human full length N-terminal GST-tagged HDAC4 by surface plasmon resonance analysis. In general terms: SPR reads the build-up and loss of mass on a sensor chip optically.
Another test deals with T10, Histone deacetylase 11 (Homo sapiens, UniProt Q96DB2).
T10 sequence (Q96DB2 whole entry): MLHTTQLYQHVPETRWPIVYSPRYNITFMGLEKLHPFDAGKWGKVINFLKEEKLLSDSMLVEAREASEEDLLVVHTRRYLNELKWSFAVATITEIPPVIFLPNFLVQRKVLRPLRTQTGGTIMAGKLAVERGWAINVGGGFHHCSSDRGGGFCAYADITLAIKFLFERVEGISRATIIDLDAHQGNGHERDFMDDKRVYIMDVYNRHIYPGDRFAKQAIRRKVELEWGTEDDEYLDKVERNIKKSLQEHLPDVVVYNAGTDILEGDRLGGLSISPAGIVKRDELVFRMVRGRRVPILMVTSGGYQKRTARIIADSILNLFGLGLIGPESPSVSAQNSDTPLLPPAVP
The experiment in a line: Inhibition of human C-terminal Flag-tagged HDAC11 expressed in sf9 cells using Boc-Lys(Ac)-AMC as substrate preincubated for 10 mins followed by substrate addition by fluorometry.

T7 sequence (Q9UQL6 whole entry): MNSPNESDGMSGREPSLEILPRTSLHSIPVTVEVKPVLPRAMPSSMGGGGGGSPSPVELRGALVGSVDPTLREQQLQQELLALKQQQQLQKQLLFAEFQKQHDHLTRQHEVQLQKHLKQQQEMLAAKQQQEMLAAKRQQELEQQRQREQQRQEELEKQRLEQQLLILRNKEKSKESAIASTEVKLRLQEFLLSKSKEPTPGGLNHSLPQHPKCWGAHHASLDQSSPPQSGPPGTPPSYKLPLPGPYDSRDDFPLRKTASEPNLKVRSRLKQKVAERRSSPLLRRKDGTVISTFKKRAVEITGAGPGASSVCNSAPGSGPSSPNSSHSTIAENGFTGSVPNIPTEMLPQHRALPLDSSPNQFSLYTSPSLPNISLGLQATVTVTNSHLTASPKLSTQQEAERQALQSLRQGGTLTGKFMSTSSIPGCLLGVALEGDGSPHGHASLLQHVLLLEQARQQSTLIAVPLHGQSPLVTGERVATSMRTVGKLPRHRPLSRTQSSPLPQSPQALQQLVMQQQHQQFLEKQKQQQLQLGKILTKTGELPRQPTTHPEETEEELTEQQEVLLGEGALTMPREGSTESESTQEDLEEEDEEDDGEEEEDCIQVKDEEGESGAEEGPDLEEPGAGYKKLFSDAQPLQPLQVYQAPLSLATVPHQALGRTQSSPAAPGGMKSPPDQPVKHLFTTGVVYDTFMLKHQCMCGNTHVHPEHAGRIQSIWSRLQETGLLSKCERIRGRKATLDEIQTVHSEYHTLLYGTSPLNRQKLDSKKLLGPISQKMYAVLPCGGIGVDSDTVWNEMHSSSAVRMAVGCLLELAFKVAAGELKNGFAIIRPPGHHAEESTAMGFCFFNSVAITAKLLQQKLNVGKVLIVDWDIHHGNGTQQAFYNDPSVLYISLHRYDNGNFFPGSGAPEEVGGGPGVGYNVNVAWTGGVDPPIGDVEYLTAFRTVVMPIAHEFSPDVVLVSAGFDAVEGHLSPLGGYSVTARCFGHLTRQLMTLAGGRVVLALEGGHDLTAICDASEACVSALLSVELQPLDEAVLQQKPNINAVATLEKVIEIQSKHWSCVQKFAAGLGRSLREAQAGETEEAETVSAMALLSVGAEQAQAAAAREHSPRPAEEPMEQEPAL
T5 sequence (Q9UKV0 whole entry, the tested form may be a part): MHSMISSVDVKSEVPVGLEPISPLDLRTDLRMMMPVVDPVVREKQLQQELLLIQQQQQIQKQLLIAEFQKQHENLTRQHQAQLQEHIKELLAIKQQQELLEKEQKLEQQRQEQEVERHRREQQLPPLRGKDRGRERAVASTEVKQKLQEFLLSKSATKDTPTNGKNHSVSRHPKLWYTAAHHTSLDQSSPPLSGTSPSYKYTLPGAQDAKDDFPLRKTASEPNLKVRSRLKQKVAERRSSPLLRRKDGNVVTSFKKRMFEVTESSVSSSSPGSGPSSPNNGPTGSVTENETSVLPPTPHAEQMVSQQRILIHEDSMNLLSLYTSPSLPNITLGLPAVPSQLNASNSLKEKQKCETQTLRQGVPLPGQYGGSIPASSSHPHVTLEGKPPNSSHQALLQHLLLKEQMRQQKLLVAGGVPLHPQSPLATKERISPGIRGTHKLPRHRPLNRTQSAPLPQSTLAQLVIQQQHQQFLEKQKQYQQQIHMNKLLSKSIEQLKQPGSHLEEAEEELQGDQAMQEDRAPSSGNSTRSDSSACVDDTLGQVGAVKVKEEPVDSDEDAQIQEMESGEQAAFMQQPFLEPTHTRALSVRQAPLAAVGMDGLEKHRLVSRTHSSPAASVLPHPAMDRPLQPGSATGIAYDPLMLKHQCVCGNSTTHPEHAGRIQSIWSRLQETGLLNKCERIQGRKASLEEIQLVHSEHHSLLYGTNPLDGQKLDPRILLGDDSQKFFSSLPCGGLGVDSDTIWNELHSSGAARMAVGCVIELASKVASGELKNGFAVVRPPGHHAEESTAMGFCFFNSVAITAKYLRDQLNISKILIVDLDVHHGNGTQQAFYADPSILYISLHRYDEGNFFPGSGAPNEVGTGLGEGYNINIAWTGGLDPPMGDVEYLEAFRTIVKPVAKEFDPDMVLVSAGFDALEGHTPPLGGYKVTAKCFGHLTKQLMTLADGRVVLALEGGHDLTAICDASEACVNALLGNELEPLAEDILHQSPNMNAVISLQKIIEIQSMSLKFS
T2 sequence (O15379 whole entry): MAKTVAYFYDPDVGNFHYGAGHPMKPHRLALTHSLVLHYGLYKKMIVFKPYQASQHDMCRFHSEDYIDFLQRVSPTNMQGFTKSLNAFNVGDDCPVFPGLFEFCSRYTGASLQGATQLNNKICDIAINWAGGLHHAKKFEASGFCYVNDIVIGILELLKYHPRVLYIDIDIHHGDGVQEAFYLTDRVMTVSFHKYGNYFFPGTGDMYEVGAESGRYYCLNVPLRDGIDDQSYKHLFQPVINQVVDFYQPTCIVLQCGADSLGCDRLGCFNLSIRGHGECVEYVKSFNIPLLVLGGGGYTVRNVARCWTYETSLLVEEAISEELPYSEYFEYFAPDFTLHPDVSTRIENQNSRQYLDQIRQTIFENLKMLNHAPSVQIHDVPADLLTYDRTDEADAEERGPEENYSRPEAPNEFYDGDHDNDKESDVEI

In the case of `N=C1Sc2ccccc2C2=NCCCN12`, the 50% inhibitory concentration (IC50) at Histone deacetylase 4 [1] is 9000 nM; against Histone deacetylase 3 [2], over 50000 nM; against Histone deacetylase 1 [3], 4000 nM; in test [4] it was 7000 nM.

With `CCN(CC)Cc1ccc2cc(COC(=O)Nc3ccc(C(=O)NO)cc3)ccc2c1` [GIVINOSTAT], the half-maximal inhibitory concentration (IC50) against Histone deacetylase 4 [5] is over 1000 nM; against Histone deacetylase 9 [6], 512 nM; in test [7], 331 nM; on Histone deacetylase 5 [8], 532 nM.

Regarding `Cc1ncsc1-c1ccc(CNC(=O)[C@@H]2C[C@@H](O)CN2C(=O)[C@@H](NC(=O)CCCCCCCCCCC(=O)Nc2ccc(C(=O)Nc3cc(-c4ccccc4)ccc3N)cc2)C(C)(C)C)cc1`, it took 17000 nM to reach half-maximal inhibition in test [9] (IC50).

Turning to `Cc1cn(C)nc1CN1CCC(c2ccc(C(=O)Nc3ccccc3N)cc2)CC1`, the 50% inhibitory concentration (IC50) against Histone deacetylase 2 [10] was determined as 600 nM; at Histone deacetylase 1 [11], 100 nM; on Histone deacetylase 3 [12] it was 600 nM.

For `CN(C)Cc1c(C(=O)NCCOc2ccc(C(=O)NO)cc2)oc2ccccc12` [ABEXINOSTAT], the 50% inhibitory concentration (IC50) amounted to 48 nM on Histone deacetylase 5 [13] and 168 nM at Histone deacetylase 9 [14].

`CCCCNNC(=O)c1ccc(Br)cc1`: the IC50 in [15] came out at 15000 nM; at Histone deacetylase 8, 2000 nM.

With `Cn1cc(CNCC2CCN(c3ncc(C(=O)NO)cn3)CC2)c2ccccc21` [QUISINOSTAT], the values for the IC50 (in test [16]; at Histone deacetylase 5 [13]; against Histone deacetylase 9 [14]) were 0.5 nM, 4 nM and 32 nM, respectively.

On to `C/C=C1\NC(=O)[C@@H](C)NC(=O)[C@@H](C(C)C)NC(=O)C[C@@H](CCC)OC(=O)[C@H](C(C)C)NC1=O`, for which the figures for the Ki (on Histone deacetylase 2 [17]; at Histone deacetylase 1 [18]; in test [19]) were 370 nM, 690 nM and 800 nM, respectively.

Turning to `COc1cccc2c1c(O)c(C(=O)N(C)c1ccc(C(F)(F)F)cc1)c(=O)n2C` [TASQUINIMOD], the affinity at Histone deacetylase 4 [20], expressed as Kd, was 10 nM.

Turning to `Nc1ccccc1NC(=O)c1ccc(CNc2nccc(-c3cccnc3)n2)cc1` [MOCETINOSTAT], at Histone deacetylase 11, the midpoint of inhibition, the IC50, lay at 600 nM.
